Here are results for ten compounds from patent publication US20250313546A1, “NUCLEIC ACID BINDERS” (UNIVERSITY OF STRATHCLYDE, priority 2022, published 2025).

For assay [1], the system named is Staphylococcus aureus (ATCC 43300). Description: Antibacterial MIC, broth microdilution (CLSI). The class given is cell-based. The settings on record: for MIC80: Staphylococcus aureus, ATCC43300, read-out: MIC80 S. aureus. (In general: In broth dilution the organism is exposed to a series of concentrations in liquid medium.)
Assay [2] deals with Enterococcus faecalis (ATCC 51299). Description: Antibacterial MIC, broth microdilution (CLSI). Type of assay: cell-based. As to conditions: for MIC80: Enterococcus faecalis, ATCC51299, read-out: MIC80 E. faecalis; for E. faecalis Selectivity Indices, Group / E. faecalis Selectivity Index (SI): SI, IC50 (μM)/MIC80 (μM), HEK293 cytotoxicity; for E. faecalis Selectivity Index (SI): numeric value.

Assay [3] concerns Escherichia coli (ATCC 25922). Description: Antibacterial MIC, broth microdilution (CLSI). The class given is cell-based. As to conditions: Escherichia coli, ATCC25922; read-out: MIC80 E. coli.
Assay [4] concerns Genomic double stranded DNA (salmon). Description: Fluorescence intercalator displacement (FID) assay, SYBR-safe probe. The settings on record: 20 μM compound, 30° C., lower % = stronger binding. Put shortly: (§1)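 Compound at 20 μM mixed with 3.76 ng/mL polyAU dsRNA or salmon genomic dsDNA and 12500-fold diluted SybrSafe in 1 mM phosphate buffer pH 7.4, then heated to 30 °C and fluorescence read. Reduction is expressed as normalised %, with nucleic acid plus probe as maximum and probe alone as minimum.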

Assay [5] deals with PolyAU double stranded RNA. The description is as above. The settings on record: 20 μM compound, 30° C., lower % = stronger binding. Put shortly:
as §1

The next assay deals with T. equiperdum. Description: Resazurin-based (Alamar blue) drug sensitivity assay. As to conditions: Trypanosoma equiperdum, read-out: IC50 T. equiperdum. For orientation: Alamar Blue is a resazurin reagent that responds to reducing activity.
The next assay concerns T. evansi AntTat 3/3. The description is as above. As to conditions: read-out: IC50 T. evansi.
A further assay deals with C. neoformans (F10025). The settings on record: Cryptococcus neoformans, read-out: MIC99 C. neoformans.
The subject of assay [6] is A. fumigatus A1160 (MFIG001). The settings on record: Aspergillus fumigatus, read-out: MIC99 A. fumigatus A1160.
Protocol: The Minimum Inhibitory Concentration (MIC, at 99% inhibition) of the compounds was determined using the broth microdilution method as recommended by EUCAST (EUCAST Definitive Document E.DEF 9.3.2, Method for the determination of broth dilution minimum inhibitory concentrations of antifungal agents for conidia forming moulds and EUCAST Definitive Document E.DEF 7.3.2 Method for the determination of broth dilution minimum inhibitory concentrations of antifungal agents for yeasts).
Assay [7] concerns Candida glabrata (ACPF3309). The settings on record: for MIC99: Nakaseomyces glabratus, read-out: MIC99 Candida glabrata; for C. glabrata Selectivity Indices, Group: SI, IC50 (μM)/MIC99 (μg/mL), HEK293 cytotoxicity, Alkyl Amidines and NH Pyrroles.
A further assay deals with T. vaginalis. Description: Trichomonas resorufin assay. The class given is cell-based. The settings on record: SI, IC50 (μM)/IC50 (μM), HEK293 cytotoxicity.
The subject of assay [8] is SARS-CoV-2 (hCoV-19/Australia/VIC01/2020). Description: SARS-CoV-2 microplaque inhibition assay in Vero-E6 cells. The class given is cell-based. The settings on record: SI, IC50 (μM)/IC50 (μM); HEK293 cytotoxicity; Alkyl Amidines and NH Pyrroles.
In another assay the test system is Candida auris (H.17.157). The settings on record: SI, IC50 (μM)/MIC99 (μg/mL); HEK293 cytotoxicity; Alkyl Amidines and NH Pyrroles.
[9] abbreviates: SI, IC50 (μM)/MIC80 (μM), HEK293 cytotoxicity, Amides.
The mark [10] stands for this setting: SI, IC50 (μM)/MIC80 (μM), HEK293 cytotoxicity, Alkyl Amidines and NH Pyrroles.

The structures appear in SMILES notation. In brackets after ≈: the same amount, converted by molar mass.

Protocol for T. evansi AntTat 3/3: A detailed description of the procedure for evaluating activity against trypanosomes, using an Alamar Blue (resazurin) assay, is described below.
The bloodstream form (BSF) T. b. brucei s427 (see De Koning, H. P. et al., Mol. Biochem. Parasitol. 2000, 106, 181-185), T. evansi AntTat 3/3 (see Dean, S. et al., Proc. Natl. Acad. Sci. USA, 2013, 110, 14741-14746), and T. equiperdum (see Stewart, M. L. et al., Eukaryot. Cell, 2010, 9, 336-343) were cultured in HMI-9 medium (Life Technologies, Paisley, United Kingdom) supplemented with 10% heat inactivated Foetal Bovine Serum (FBS (PAA Laboratories Linz, Austria)), 14 μL/L β-mercaptoethanol (BDH, Dorset, UK), and 3.0 g/L NaHCO3 (Sigma-Aldrich) and adjusted to pH 7.4. These cell lines were maintained at 37° C. in a humidified, 5% CO2 environment.
A resazurin-based (Alamar blue) drug sensitivity assay was used to assess and compare the activity of standard trypanocides in the different cell lines investigated (see Gould, M. K. et al., Anal. Biochem., 2008, 382, 87-93). Briefly, 23 doubling dilutions of the test compound of the invention, starting at 100 μM, and a compound-free control were prepared in 100 μL medium in a 96-well white plate (Greiner Bio-one, Frickenhausen, Germany). The cells were adjusted to 2×10^4 cells/mL for T. b. brucei and T. equiperdum; 4×10^4 cells/mL for T. evansi; and 5×10^5 cells/mL for T. congolense in the appropriate medium. 100 μL of the adjusted cells was then added to the wells containing drug dilutions and incubated for 48 h under respective culture condition. Thereafter, 20 μL of 125 mg/mL resazurin sodium dye was added, and the plate was incubated for a further 24 h.

For the compound `Cn1cc(NC(=O)c2ccc(/C=C/c3ccc4nonc4c3)cc2)cc1C(=O)Nc1c[nH]c(C(=O)NCCN2CCOCC2)c1` [IIIb1, (E)-4-(4-(2-(benzo[c][1,2,5]oxadiazol-5-yl)vinyl)benzamido)-1-methyl-N-(5-((2-morpholinoethyl)carbamoyl)-1H-pyrrol-3-yl)-1H-pyrrole-2-carboxamide], the MIC80 (in general, an inhibitory concentration at the 80% level, which refers to growth in some studies and to a panel of isolates in others) in [1] was 5 to 25 µM (≈ 3.04 to 15.2 µg/mL); in assay [2] it was over 100 µM; in [3] it was over 100 µM. Besides, the “% Normalised Fluorescence with gDNA” value in assay [4] is recorded as 47%. The “% Normalised Fluorescence with polyAU RNA” value in assay [5] stood at 30%. Further, the IC50 with T. equiperdum and in the assay on T. evansi AntTat 3/3 was 10 to 100 nM throughout.
As for `Cn1cc(NC(=O)c2ccc(/C=C/c3cnc4ccccc4c3)cc2)cc1C(=O)Nc1c[nH]c(C(=O)NCCN2CCOCC2)c1` [IIIb4, (E)-1-methyl-N-(5-((2-morpholinoethyl)carbamoyl)-1H-pyrrol-3-yl)-4-(4-(2-(quinolin-3-yl)vinyl)benzamido)-1H-pyrrole-2-carboxamide], the figures for the MIC80 in assay [1], in assay [2] and in [3] were under 5 µM, over 100 µM and over 100 µM, respectively. Moreover, the “% Normalised Fluorescence with gDNA” value in assay [4] was 37%. Also, in assay [5], the “% Normalised Fluorescence with polyAU RNA” value came out at 86%. In addition, the MIC99 (in the assay on C. neoformans (F10025); in assay [6]; in [7]) was over 50 µg/mL each time. The IC50 in the assay on T. equiperdum and in the assay on T. evansi AntTat 3/3 was 10 to 100 nM throughout.
Turning to `O=C(Nc1c[nH]c(C(=O)Nc2c[nH]c(C(=O)NCCN3CCOCC3)c2)c1)c1ccc(/C=C/c2cnc3ccccc3c2)cc1` [IIIb5, (E)-N-(2-morpholinoethyl)-4-(4-(4-(2-(quinolin-3-yl)vinyl)benzamido)-1H-pyrrole-2-carboxamido)-1H-pyrrole-2-carboxamide], the MIC80 in assay [1] is under 5 µM; in assay [2], over 100 µM; in assay [3], over 100 µM. Further, in assay [4], the “% Normalised Fluorescence with gDNA” value is given as 49%. Also, in [5], the “% Normalised Fluorescence with polyAU RNA” value came to 59%. Also, the MIC99 (in the assay with C. neoformans (F10025); in assay [6]; in assay [7]) was over 50 µg/mL throughout. Further, the half-maximal inhibitory concentration (IC50) in the assay with T. equiperdum and in the assay on T. evansi AntTat 3/3 was 10 to 100 nM throughout.
Consider `O=C(Nc1c[nH]c(C(=O)Nc2c[nH]c(C(=O)NCCN3CCOCC3)c2)c1)c1ccc(/C=C/c2ccc3nonc3c2)cc1` [IIIb6, (E)-4-(4-(2-(benzo[c][1,2,5]oxadiazol-5-yl)vinyl)benzamido)-N-(5-((2-morpholinoethyl)carbamoyl)-1H-pyrrol-3-yl)-1H-pyrrole-2-carboxamide], for which the MIC80 in assay [1] was 25 to 100 µM (≈ 14.9 to 59.5 µg/mL); in assay [2] it was over 100 µM; in [3] it was over 100 µM. Further, the “% Normalised Fluorescence with gDNA” value in [4] came out at 84%. For the same compound, the “% Normalised Fluorescence with polyAU RNA” value in assay [5] is 53%. Besides, the IC50 – broadly, the point on the concentration scale where inhibition reaches its midpoint – in the assay on T. equiperdum was in the range of 10 to 100 nM; in the assay with T. evansi AntTat 3/3, 100 to 1000 nM.
Take `Cn1cc(NC(=O)c2cc(NC(=O)c3ccc(/C=C/c4ccc5nonc5c4)cc3)c[nH]2)cc1C(=O)NCCN1CCOCC1` [IIIb9, (E)-4-(4-(4-(2-(benzo[c][1,2,5]oxadiazol-5-yl)vinyl)benzamido)-1H-pyrrole-2-carboxamido)-1-methyl-N-(2-morpholinoethyl)-1H-pyrrole-2-carboxamide]: the MIC80 is 5 to 25 µM (≈ 3.04 to 15.2 µg/mL) in assay [1], 5 to 25 µM (≈ 3.04 to 15.2 µg/mL) in assay [2] and over 100 µM in assay [3]. The “% Normalised Fluorescence with gDNA” value in assay [4] is reported as 55%. For the same compound, in assay [5], the “% Normalised Fluorescence with polyAU RNA” value is reported as 30%. The IC50 lay in the range of 10 to 100 nM in the assay on T. equiperdum and 100 to 1000 nM with T. evansi AntTat 3/3.
Regarding `Cn1cc(NC(=O)c2cc(NC(=O)c3ccc(/C=C/c4cnc5ccccc5c4)cc3)cn2C)cc1C(N)=O` [IVa1, (E)-N-(5-carbamoyl-1-methyl-1H-pyrrol-3-yl)-1-methyl-4-(4-(2-(quinolin-3-yl)vinyl)benzamido)-1H-pyrrole-2-carboxamide], the “S. aureus Selectivity Indices, Group” value in [1] (setting [9]) is listed as “B (Group B: 1.4 < SI <= 3)”. Also, the MIC80 is under 5 µM in assay [1], under 5 µM in assay [2] and over 100 µM in assay [3]. Further, the “E. faecalis Selectivity Indices, Group” value in assay [2] (Amides) is given as “C (Group: C, 1.5 < SI <= 5)”. The “E. faecalis Selectivity Index (SI)” value in assay [2] is given as 3. In addition, the “% Normalised Fluorescence with gDNA” value in [4] turned out to be 41%. Also, the “% Normalised Fluorescence with polyAU RNA” value in assay [5] was 65%. For the same compound, the IC50 with T. equiperdum and with T. evansi AntTat 3/3 was 100 to 1000 nM throughout.
Turning to `CNC(=O)c1cc(NC(=O)c2cc(NC(=O)c3ccc(/C=C/c4cnc5ccccc5c4)cc3)cn2C)cn1C` [IVa2, (E)-N,1-dimethyl-4-(1-methyl-4-(4-(2-(quinolin-3-yl)vinyl)benzamido)-1H-pyrrole-2-carboxamido)-1H-pyrrole-2-carboxamide], the “S. aureus Selectivity Indices, Group” value in [1] (setting [9]) is “C (Group C: SI > 3)”. Moreover, the “S. aureus Selectivity Index (SI)” value in assay [1] (SI, IC50 (μM)/MIC80 (μM), HEK293 cytotoxicity, numeric value) worked out at 4. For the same compound, the MIC80 in [1] is under 5 µM; in assay [2] it was under 5 µM; in assay [3] it was over 100 µM. Also, the “E. faecalis Selectivity Indices, Group” value in assay [2] (Amides) is “D (Group D: SI > 5)”. Further, in assay [2], the “E. faecalis Selectivity Index (SI)” value is on record as 10. For the same compound, the “% Normalised Fluorescence with gDNA” value in assay [4] was 29%. In assay [5], the “% Normalised Fluorescence with polyAU RNA” value stood at 73%. Also, the IC50 in the assay with T. equiperdum and in the assay on T. evansi AntTat 3/3 was 100 to 1000 nM each time.
For `Cn1cc(NC(=O)c2cc(NC(=O)c3ccc(/C=C/c4cnc5ccccc5c4)cc3)cn2C)cc1C(=O)NCCC1CCCCC1` [IVa3, (E)-N-(2-cyclohexylethyl)-1-methyl-4-(1-methyl-4-(4-(2-(quinolin-3-yl)vinyl)benzamido)-1H-pyrrole-2-carboxamido)-1H-pyrrole-2-carboxamide], the MIC80 was 25 to 100 µM (≈ 15.7 to 62.9 µg/mL) in assay [1], over 100 µM in [2] and over 100 µM in [3]. Besides, the IC50 with T. equiperdum and in the assay on T. evansi AntTat 3/3 was 100 to 1000 nM in each case.
Turning to `COc1ccc(/C=C/c2ccc(C(=O)Nc3cc(C(=O)Nc4cc(C(=O)NCCN5CCOCC5)n(C)c4)n(C)c3)cn2)cc1` [Ref-2, reference compound], in assay [1] (setting [10]), the “S. aureus Selectivity Indices, Group” value was “A (Group A: SI < 3)”. The “E. faecalis Selectivity Indices, Group” value in [2] (Alkyl Amidines and NH Pyrroles) is listed as “A (Group A: SI < 3)”. Further, in the assay on T. vaginalis (Alkyl Amidines and NH Pyrroles), the “T. vaginalis Selectivity Indices, Group” value is “A (Group A: SI < 8)”. Besides, in assay [8], the “SARS-CoV-2 Selectivity Indices, Group” value is listed as “A (Group A: SI < 4.1)”. Besides, in the assay on Candida auris (H.17.157), the “C. auris Selectivity Indices, Group” value is given as “A (Group A: SI < 0.4)”. Also, the “C. glabrata Selectivity Indices, Group” value in assay [7] is recorded as “A (Group A: SI < 12)”.
On to `Cn1cc(NC(=O)c2cc(NC(=O)c3ccc(/C=C/c4cnc5ccccc5c4)cc3)cn2C)cc1C(=O)NCCN1CCOCC1` [Ref-3, (E)-1-methyl-4-(1-methyl-4-(4-(2-(quinolin-3-yl)vinyl)benzamido)-1H-pyrrole-2-carboxamido)-N-(2-morpholinoethyl)-1H-pyrrole-2-carboxamide, reference compound], for which the “S. aureus Selectivity Indices, Group” value in assay [1] (setting [10]) is recorded as “A (Group A: SI < 3)”; in assay [1] (setting [9]), “A (Group A: SI < 1.4)”. In addition, the “E. faecalis Selectivity Indices, Group” value in assay [2] (Alkyl Amidines and NH Pyrroles) is listed as “A (Group A: SI < 3)”; in [2] (Amides), “A (Group A: SI < 0.4)”. For the same compound, the “T. vaginalis Selectivity Indices, Group” value in the assay with T. vaginalis (Alkyl Amidines and NH Pyrroles) is recorded as “A (Group A: SI < 8)”; with T. vaginalis (Amides) it was “A (Group A: SI < 0.25)”. In [8], the “SARS-CoV-2 Selectivity Indices, Group” value is on record as “A (Group A: SI < 4.1)”. Moreover, the “C. auris Selectivity Indices, Group” value with Candida auris (H.17.157) is recorded as “A (Group A: SI < 0.4)”. The “C. glabrata Selectivity Indices, Group” value in [7] was “A (Group A: SI < 12)”.
